Assay: xn = mol fraction of the nth substance listed

CC(C)(C)N + O
Conditions | viscosity [mPa·s]
298 K, 101 kPa, x1 = 0.001 | 0.993
298 K, 101 kPa, x1 = 0.01 | 1.068
298 K, 101 kPa, x1 = 0.02 | 1.269
298 K, 101 kPa, x1 = 0.03 | 1.527
298 K, 101 kPa, x1 = 0.04 | 1.698
298 K, 101 kPa, x1 = 0.05 | 1.89
298 K, 101 kPa, x1 = 0.06 | 2.059
298 K, 101 kPa, x1 = 0.08 | 2.363
298 K, 101 kPa, x1 = 0.1 | 2.604
298 K, 101 kPa, x1 = 0.15 | 2.992
298 K, 101 kPa, x1 = 0.2 | 3.112
298 K, 101 kPa, x1 = 0.25 | 3.057
298 K, 101 kPa, x1 = 0.3 | 2.832
298 K, 101 kPa, x1 = 0.4 | 2.211
298 K, 101 kPa, x1 = 0.5 | 1.642
298 K, 101 kPa, x1 = 0.6 | 1.195
298 K, 101 kPa, x1 = 0.7 | 0.881
298 K, 101 kPa, x1 = 0.8 | 0.677
298 K, 101 kPa, x1 = 0.85 | 0.594
298 K, 101 kPa, x1 = 0.9 | 0.534
298 K, 101 kPa, x1 = 0.92 | 0.523
298 K, 101 kPa, x1 = 0.95 | 0.48
298 K, 101 kPa, x1 = 0.97 | 0.462
298 K, 101 kPa, x1 = 0.98 | 0.456
298 K, 101 kPa, x2 = 0.01 | 0.445
298.15 K, 101.33 kPa, x1 = 0.1001 | 2.654
298.15 K, 101.33 kPa, x1 = 0.2002 | 3.163
298.15 K, 101.33 kPa, x1 = 0.2998 | 2.906
298.15 K, 101.33 kPa, x1 = 0.3996 | 2.294
298.15 K, 101.33 kPa, x1 = 0.5 | 1.69
298.15 K, 101.33 kPa, x1 = 0.5999 | 1.229
298.15 K, 101.33 kPa, x1 = 0.6984 | 0.9094
298.15 K, 101.33 kPa, x1 = 0.7998 | 0.6936
298.15 K, 101.33 kPa, x1 = 0.9 | 0.5459
303 K, 101 kPa, x1 = 0.001 | 0.81
303 K, 101 kPa, x1 = 0.01 | 0.947
303 K, 101 kPa, x1 = 0.02 | 1.116
303 K, 101 kPa, x1 = 0.03 | 1.29
303 K, 101 kPa, x1 = 0.04 | 1.455
303 K, 101 kPa, x1 = 0.05 | 1.606
303 K, 101 kPa, x1 = 0.06 | 1.745
303 K, 101 kPa, x1 = 0.08 | 1.986
303 K, 101 kPa, x1 = 0.1 | 2.189
303 K, 101 kPa, x1 = 0.15 | 2.516
303 K, 101 kPa, x1 = 0.2 | 2.622
303 K, 101 kPa, x1 = 0.25 | 2.57
303 K, 101 kPa, x1 = 0.3 | 2.392
303 K, 101 kPa, x1 = 0.4 | 1.901
303 K, 101 kPa, x1 = 0.5 | 1.419
303 K, 101 kPa, x1 = 0.6 | 1.06
303 K, 101 kPa, x1 = 0.7 | 0.787
303 K, 101 kPa, x1 = 0.8 | 0.609
303 K, 101 kPa, x1 = 0.85 | 0.543
303 K, 101 kPa, x1 = 0.9 | 0.49
303 K, 101 kPa, x1 = 0.92 | 0.47
303 K, 101 kPa, x1 = 0.95 | 0.442
303 K, 101 kPa, x1 = 0.97 | 0.426
303 K, 101 kPa, x1 = 0.98 | 0.419
303 K, 101 kPa, x2 = 0.01 | 0.417
303.15 K, 101.33 kPa, x1 = 0.1001 | 2.222
303.15 K, 101.33 kPa, x1 = 0.2002 | 2.645
303.15 K, 101.33 kPa, x1 = 0.2998 | 2.422
303.15 K, 101.33 kPa, x1 = 0.3996 | 1.935
303.15 K, 101.33 kPa, x1 = 0.5 | 1.453
303.15 K, 101.33 kPa, x1 = 0.5999 | 1.076
303.15 K, 101.33 kPa, x1 = 0.6984 | 0.8077
303.15 K, 101.33 kPa, x1 = 0.7998 | 0.6226
303.15 K, 101.33 kPa, x1 = 0.9 | 0.5017
308 K, 101 kPa, x1 = 0.001 | 0.73
308 K, 101 kPa, x1 = 0.01 | 0.846
308 K, 101 kPa, x1 = 0.02 | 0.99
308 K, 101 kPa, x1 = 0.03 | 1.132
308 K, 101 kPa, x1 = 0.04 | 1.263
308 K, 101 kPa, x1 = 0.05 | 1.394
308 K, 101 kPa, x1 = 0.06 | 1.571
308 K, 101 kPa, x1 = 0.08 | 1.718
308 K, 101 kPa, x1 = 0.1 | 1.871
308 K, 101 kPa, x1 = 0.15 | 2.168
308 K, 101 kPa, x1 = 0.2 | 2.211
308 K, 101 kPa, x1 = 0.25 | 2.16
308 K, 101 kPa, x1 = 0.3 | 2.061
308 K, 101 kPa, x1 = 0.4 | 1.643
308 K, 101 kPa, x1 = 0.5 | 1.24
308 K, 101 kPa, x1 = 0.7 | 0.712
308 K, 101 kPa, x1 = 0.8 | 0.566
308 K, 101 kPa, x1 = 0.85 | 0.499
308 K, 101 kPa, x1 = 0.9 | 0.451
308 K, 101 kPa, x1 = 0.92 | 0.433
308 K, 101 kPa, x1 = 0.95 | 0.41
308 K, 101 kPa, x1 = 0.97 | 0.396
308 K, 101 kPa, x1 = 0.98 | 0.389
308 K, 101 kPa, x2 = 0.01 | 0.383
308.15 K, 101.33 kPa, x1 = 0.1001 | 1.888
308.15 K, 101.33 kPa, x1 = 0.2002 | 2.229
308.15 K, 101.33 kPa, x1 = 0.2998 | 2.058
308.15 K, 101.33 kPa, x1 = 0.3996 | 1.655
308.15 K, 101.33 kPa, x1 = 0.5 | 1.258
308.15 K, 101.33 kPa, x1 = 0.5999 | 0.9485
308.15 K, 101.33 kPa, x1 = 0.6984 | 0.726
308.15 K, 101.33 kPa, x1 = 0.7998 | 0.5736
